Data reported in article PMC6510361 (Medicine and Pharmacy Reports, 2019).

Tests used:
CYP2D6 = conditions: sertraline, fluvoxamine: ref 17; bupropion in vitro ref 12, in vivo ref 13; cited from earlier work
CYP1A2 = conditions: cited from earlier work
CYP2C9 = conditions: cited from earlier work
[1] = tested on: rat pooled liver microsomes
[2] = cited from earlier work

SMILES: CC(NC(C)(C)C)C(=O)c1cccc(Cl)c1 (centres unmarked) [Bupropion, bupropion]
- CYP2D6 inhibition (CYP2D6): inhibits

SMILES: COCCCC/C(=N\OCCN)c1ccc(C(F)(F)F)cc1 [Fluvoxamine, fluvoxamine]
- CYP1A2 inhibition (CYP1A2): strong inhibitor
- CYP2C9 inhibition (CYP2C9): moderate inhibitor
- CYP2D6 inhibition (CYP2D6): weak inhibitor
- decrease of carvedilol metabolisation rate [1]: 25.19%
- inhibitory potency compared with citalopram ([1]; based on metabolization rate and AUC0–30, citalopram data ref 20): stronger inhibitors than citalopram

SMILES: COc1cc(O)ccc1OCCNCC(O)COc1cccc2[nH]c3ccccc3c12 (centres unmarked) [4′-hydroxyphenyl carvedilol]
- beta-blocking potency relative to carvedilol [2]: approximately 13 times

SMILES: CN[C@H]1CC[C@@H](c2ccc(Cl)c(Cl)c2)c2ccccc21 [Sertraline, sertraline]
- CYP1A2 inhibition (CYP1A2): weak inhibitor
- CYP2C9 inhibition (CYP2C9): weak inhibitor
- CYP2D6 inhibition (CYP2D6): moderate inhibitor
- decrease of carvedilol metabolisation rate [1]: 63.63%
